“Also recorded” adds a separate entry of the source. Where a SMILES comes first, the peptide text is derived from it.
How the values were obtained:
chicken PTH3R [1] = target: T1, chicken PTH3R (Gallus gallus, UniProt G8YY06); experiment: cAMP accumulation in HEK293 cells stably transfected with chicken PTH3R (radioimmunoassay); type: cell-based; settings: for stimulation of PTH3R cAMP accumulation, comparison in words: chicken 1–34 peptides, 0.1 nM to 100 nM; for Emax (maximal cAMP production, PTH3R): mean ± SEM, 3 experiments in triplicate, above basal levels, * (PTH-L) p < 0.05 compared to other peptides
T1 sequence (G8YY06 1-530): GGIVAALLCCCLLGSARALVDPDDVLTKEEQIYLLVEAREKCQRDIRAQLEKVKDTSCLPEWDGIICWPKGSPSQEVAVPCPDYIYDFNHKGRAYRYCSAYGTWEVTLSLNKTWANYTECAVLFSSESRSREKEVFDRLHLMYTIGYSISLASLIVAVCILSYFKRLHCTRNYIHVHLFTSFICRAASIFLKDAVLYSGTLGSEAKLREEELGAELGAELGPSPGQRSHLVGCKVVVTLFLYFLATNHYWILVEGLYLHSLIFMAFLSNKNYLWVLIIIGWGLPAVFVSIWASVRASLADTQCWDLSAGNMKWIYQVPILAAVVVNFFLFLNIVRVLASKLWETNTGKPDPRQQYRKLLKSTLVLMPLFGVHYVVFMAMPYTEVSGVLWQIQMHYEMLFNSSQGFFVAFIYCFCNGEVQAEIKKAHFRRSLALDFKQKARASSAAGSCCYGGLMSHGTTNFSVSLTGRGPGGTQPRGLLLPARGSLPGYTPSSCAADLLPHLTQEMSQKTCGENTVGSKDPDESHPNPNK
Description: (§1) HEK293 cells were maintained in complete Dulbecco’s modified Eagle’s medium (DMEM, Sigma, Spain) with 4.5 g/L glucose, 110 mg/L sodium pyruvate and L-glutamine supplemented with 10% sterile foetal bovine serum and 0.1% penicillin: streptomycin antibiotic mixture (10.000 U:10 mg/ml, Sigma) in a humid 5% CO2 incubator (Sanyo) at 37°C. On the day prior to transfection, 2–3 x10^5 cells were seeded on 6 well-plates (Starsted, Portugal). Linearized constructs (1 μg) and Fugene 6 (Roche, Germany) cell transfection reagent were used to transfect cells according to the manufactures protocol. The transfection complex was incubated for 40 min at room temperature before adding to the cells which were left to grown for 72 hours with daily changes of complete medium. Selection of the stably transfected clones was performed with complete medium supplemented with 800 μg/ml of Geneticin (G418 sulphate, GibcoBRL) and 250 μg/ml sterile filtered 1:100 amphotericin B solution (Sigma, Spain). Cell recovery was monitored daily by constant changes of antibiotic selective medium and the success of gene integration and expression was confirmed by RT-PCR with receptor specific primers.
(§2) The capacity of chicken (1–34) PTH-family peptides to activate the stably transfected PTH1R and PTH3R cell lines was analysed by measuring intracellular cAMP production. Cell line bearing chicken receptors PTH1R and PTH3R were assayed in triplicate in the same assay in 96 well plates (Starstedt). Three independent experiments were performed. Cells were incubated at 37°C in a CO2 incubator and two days prior to the experiments, 2–3 x 10^5 cells were plated and peptide assays were carried out by adding to the recombinant cells decreasing concentrations of test peptide: 100 nM to 0.1 nM of chicken PTH(1–34), PTHrP(1–34) and PTH-L(1–34) or 100 nM of human PTH(1–34) and human TIP39 (Sigma, Spain). Prior to peptide addition, cells were incubated for 40 min with 1 mM 3-isobutyl-1-methylxantine (IBMX, Sigma), which was replaced with fresh medium containing the test peptide in the presence of 1 mM IBMX for a further 40 min. Forskolin (10 μM, Sigma) was used as positive control. Negative control assays were carried out using non-transfected cells in the presence or absence of 100 nM of each peptide. At the end of the assays, cells were washed, ressuspended in 100 μl of 1 x PBS/0.5 M EDTA and immediately frozen at −80°C to promote cell lysis for later quantification of intracellular cAMP production.
(§3) For quantification of intracellular cAMP, cells were lysed using 3 consecutive thaw (42°C)/freeze (−80°C) cycles and the supernatant and cell debris were sonicated for 20 sec on ice. Cells were boiled at 100°C for 10 min to denature proteins and the supernatant was collected after centrifugation for 10 min at 4°C and 19000 g. cAMP was quantified in duplicate by radioimmunoassay using the TRK432 kit (GE Healthcare, UK) following the manufacturer's instructions.
(§4) The results are presented as the mean ± SEM of three independent experiments carried out in triplicate for cAMP experiments and two independent experiments carried out in quadruplicate for Ca^2+ experiments. Data was plotted as the output of cAMP or Ca^2+ at different peptide concentrations for each PTHR using SigmaPlot 9 (Systat, Inc., San Jose, CA). EC50 and confidence limits were calculated using a sigmoidal curve fitting feature within the Single Ligand Binding routine of the Pharmacology module of Sigmaplot. […] To improve curve fitting the maximum empirical stimulation achieved for each receptor was assumed to be at 100 nM for all assays and the curve fitted accordingly.

chicken PTH1R [2] = target: T2, chicken PTH1R (Gallus gallus, UniProt C7S302); experiment: cAMP accumulation in HEK293 cells stably transfected with chicken PTH1R (radioimmunoassay); type: cell-based; settings: for Emax (maximal cAMP production, PTH1R): mean ± SEM, 3 experiments in triplicate, above basal levels, * (PTHrP) p < 0.05 compared to other peptides; for accumulation of cAMP with PTH1R, human peptide, in words: human peptides at 10 nM and 100 nM, single experiment in triplicate
Description: as §1, §2, §3, §4

chicken PTH1R [3] = target: T2, chicken PTH1R; experiment: intracellular Ca^2+ accumulation in HEK293 cells transfected with chicken PTH1R (Fluo-4 NW); type: cell-based; settings: HEK293, Fluo-4 NW; peptide 1 μM and 100 nM screen, decreasing concentrations
Description: as §1, with “The transfection complex was incubated for 40 min at room temperature before adding to the cells which were left to grown for 72 hours with daily changes of complete medium. Selection of the stably transfected clones was performed with complete medium supplemented with 800 μg/ml of Geneticin (G418 sulphate, GibcoBRL) and 250 μg/ml sterile filtered 1:100 amphotericin B solution (Sigma, Spain).” left out
(§5) Intracellular Ca^2+ (iCa^2+) release was measured using the Ca^2+ sensitive fluorescent dye Fluo-4 NW (Molecular Probes, Invitrogen) according to manufacturer’s instructions. […] Incubations were carried out with 100 μl of the different peptides concentrations (from 1 μM to 100 nM) and cell fluorescence was measured every 10 sec over 2 minutes after addition of reagent using a Synergy4 (Biotek, USA) plate reader. Carbachol (100 nM; Sigma, Spain) was used as a positive control for the assay and the background signal was determined by measuring fluorescence in wells containing non-transfected cells. […]

chicken PTH3R [4] = target: T1, chicken PTH3R; experiment: intracellular Ca^2+ accumulation in HEK293 cells transfected with chicken PTH3R (Fluo-4 NW); type: cell-based; settings: HEK293, Fluo-4 NW; 1 μM and 100 nM of each peptide
Description: as §1, with “The transfection complex was incubated for 40 min at room temperature before adding to the cells which were left to grown for 72 hours with daily changes of complete medium. Selection of the stably transfected clones was performed with complete medium supplemented with 800 μg/ml of Geneticin (G418 sulphate, GibcoBRL) and 250 μg/ml sterile filtered 1:100 amphotericin B solution (Sigma, Spain).” left out
as §5

Zebrafish PTH1R = settings: N-terminal peptides; ref [8],[10]; cited from earlier work
Excerpt: Chicken PTHRs are activated by PTH-family peptides in a dose-dependent manner. […] Mammalian PTH1R is activated by both PTH and PTHrP which have similar potency and stimulate both cAMP and iCa^2+ production.

T2 sequence (C7S302 1-538): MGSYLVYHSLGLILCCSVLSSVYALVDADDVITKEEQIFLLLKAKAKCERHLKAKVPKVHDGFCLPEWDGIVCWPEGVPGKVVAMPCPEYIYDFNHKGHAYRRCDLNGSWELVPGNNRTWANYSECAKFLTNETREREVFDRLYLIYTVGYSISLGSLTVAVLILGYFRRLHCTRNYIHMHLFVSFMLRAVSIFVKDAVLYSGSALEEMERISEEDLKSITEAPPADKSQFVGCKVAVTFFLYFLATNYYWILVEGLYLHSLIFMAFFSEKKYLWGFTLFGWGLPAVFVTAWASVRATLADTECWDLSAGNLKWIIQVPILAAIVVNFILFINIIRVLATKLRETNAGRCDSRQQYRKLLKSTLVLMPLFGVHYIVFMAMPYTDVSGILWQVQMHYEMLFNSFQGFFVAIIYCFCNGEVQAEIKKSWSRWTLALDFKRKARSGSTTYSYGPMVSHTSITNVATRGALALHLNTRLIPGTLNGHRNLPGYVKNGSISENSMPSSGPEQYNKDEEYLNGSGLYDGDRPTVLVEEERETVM

Molecule	stimulation of PTH3R cAMP accumulation, comparison in words (chicken PTH3R [1])	Emax (maximal cAMP production, PTH3R) (chicken PTH3R [1])	Emax (maximal cAMP production, PTH1R) (chicken PTH1R [2])	intracellular Ca^2+ accumulation with PTH1R, in words (chicken PTH1R [3])	stimulation of PTH3R cAMP accumulation, comparison in words (chicken PTH3R [1]; listed as PTHrP(1–34))	stimulation of PTH1R cAMP accumulation, comparison in words (chicken PTH1R [2]; chicken 1–34 peptides, 0.1 nM to 100 nM)	release of intracellular Ca^2+ on PTH3R activation, in words (chicken PTH3R [4])	cAMP accumulation, human peptide on chicken PTH1R (chicken PTH1R [2]; 10^-7 M, mean ± SEM of a single experiment carried out in triplicate (Additional file 4))	accumulation of cAMP with PTH1R, human peptide, in words (chicken PTH1R [2])	activation of zebrafish PTH1R, in words (Zebrafish PTH1R)	cAMP production with PTH3R, human peptide, in words (chicken PTH3R [1]; human peptides at 10 nM and 100 nM, single experiment in triplicate)
CSCC[C@H](NC(=O)[C@H](CC(C)C)NC(=O)[C@H](CCC(N)=O)NC(=O)[C@H](CCSC)NC(=O)[C@H](CCC(=O)O)NC(=O)[C@H](CO)NC(=O)[C@@H](NC(=O)[C@@H](N)CO)C(C)C)C(=O)N[C@@H](Cc1c[nH]cn1)C(=O)N[C@@H](CC(N)=O)C(=O)N[C@@H](CC(C)C)C(=O)NCC(=O)N[C@@H](CCC(=O)O)C(=O)N[C@@H](Cc1c[nH]cn1)C(=O)N[C@@H](CCCNC(=N)N)C(=O)N[C@@H](Cc1c[nH]cn1)C(=O)N[C@H](C(=O)N[C@H](C(=O)N[C@@H](CCC(=O)O)C(=O)N[C@@H](CCCNC(=N)N)C(=O)N[C@@H](CCC(N)=O)C(=O)N[C@@H](CC(=O)O)C(=O)N[C@@H](Cc1c[nH]c2ccccc12)C(=O)N[C@@H](CC(C)C)C(=O)N[C@@H](CCC(N)=O)C(=O)N[C@@H](CCSC)C(=O)N[C@@H](CCCCN)C(=O)N[C@@H](CC(C)C)C(=O)N[C@@H](CCC(N)=O)C(=O)N[C@@H](CC(=O)O)C(=O)N[C@H](C(=O)N[C@@H](Cc1c[nH]cn1)C(=O)N[C@@H](CO)C(=O)N[C@@H](C)C(=O)O)C(C)C)C(C)C)[C@@H](C)O [PTH] (H-SVSEMQLMHNLGEHRHTVERQDWLQMKLQDVHSA-OH; N-terminus and C-terminus assumed)	Stimulation of PTH3R was highest for PTHrP and PTH	144.7 ± 20.02 pmol/well	6.03 ± 0.78 pmol/well	had no effect							
CC[C@H](C)[C@H](NC(=O)[C@H](CC(C)C)NC(=O)[C@H](CC(N)=O)NC(=O)[C@H](CCC(N)=O)NC(=O)[C@H](CC(C)C)NC(=O)[C@H](Cc1ccccc1)NC(=O)[C@@H](NC(=O)[C@H](CCCNC(=N)N)NC(=O)[C@H](CCCNC(=N)N)NC(=O)[C@H](CCCNC(=N)N)NC(=O)[C@H](CC(C)C)NC(=O)[C@H](CC(=O)O)NC(=O)[C@H](CCC(N)=O)NC(=O)[C@@H](NC(=O)[C@H](CO)NC(=O)[C@H](CCCCN)NC(=O)CNC(=O)[C@H](CCCCN)NC(=O)[C@H](CC(=O)O)NC(=O)[C@H](Cc1c[nH]cn1)NC(=O)[C@H](CC(C)C)NC(=O)[C@H](CC(C)C)NC(=O)[C@H](CCC(N)=O)NC(=O)[C@H](Cc1c[nH]cn1)NC(=O)[C@H](CCC(=O)O)NC(=O)[C@H](CO)NC(=O)[C@@H](NC(=O)[C@H](C)N)C(C)C)[C@@H](C)CC)[C@@H](C)CC)C(=O)N[C@@H](CCC(=O)O)C(=O)NCC(=O)N[C@H](C(=O)N[C@@H](CC(N)=O)C(=O)N[C@H](C(=O)N[C@@H](C)C(=O)O)[C@@H](C)O)C(C)C [PTHrP] (H-AVSEHQLLHDKGKSIQDLRRRIFLQNLIEGVNTA-OH; N-terminus and C-terminus assumed)	Stimulation of PTH3R was highest for PTHrP and PTH	119.9 ± 11.76 pmol/well	17.21 ± 1.84 * pmol/well	stimulated intracellular Ca^2+ accumulation on activation of PTH1R; also recorded: efficiently stimulated iCa^2+ accumulation with PTH1R	had overlapping potency with PTH(1–34) for the latter receptor	produced the highest stimulation of PTH1R (p < 0.05)	not PTH3R				
Human PTH: human PTH(1–34) [reference compound]								21.4 ± 10 pmol/well	stimulated cAMP production with an apparently similar potency to chicken PTHrP	activated similarly	
Human TIP39: human TIP39 (Sigma, Spain), tuberoinfundibular peptide 39 [reference compound]									failed to induce accumulation of cAMP with PTH1R		only negligible cAMP production was obtained for PTH3R

Reference: publication PMC3483286, “Functional characterization and evolution of PTH/PTHrP receptors: insights from the chicken” (BMC Evolutionary Biology, 2012)
